# Legend:
# HepG2 cells = experiment: Metabolic activity assay (cytotoxicity) in HepG2 cells; conditions: 24 h
# Procedure: HepG2 cells (1×10^4 cells/well) were treated for 24 h with the appropriate concentrations of the compounds of interest or the corresponding vehicle (control cells), in triplicates in 96-well plates. The metabolic activities were determined using the CellTiter 96 Aqueous One Solution Cell Proliferation Assay (Promega, WI/USA), according to the manufacturer instructions.
# in vitro = conditions: human, Caco-2
# Procedure: (§1) They were grown on Transwell® culture inserts with a polycarbonate membrane (diameter, 12 mm; pore size, 0.4 μm). 50,000 cells/filter membranes were used for seeding and the medium was changed every two days. At day 18, transepithelial electrical resistance (TEER) was measured for each filter with Caco-2 cell monolayers. […] The samples were acidified by dilution with the same volume of 0.01 M HCl before fluorescence measurements.
# (§2) Ringer buffer with 10 mM d-glucose or 10 mM mannitol on apical and basolateral side of the tissue, respectively, was used as an incubation saline. […] The experiment started by the addition of stock solutions of (±)-N-((1-benzylpiperidin-3-yl)methyl)-N-(2-methoxyethyl)naphthalene-2-sulfonamide hydrochloride and fluorescein in the donor compartment to provide final 100 μM donor concentration of (±)-N-((1-benzylpiperidin-3-yl)methyl)-N-(2-methoxyethyl)naphthalene-2-sulfonamide and 20 μM fluorescein. The stock solutions were added either to the apical or to the basolateral compartment to obtain bidirectional permeability measurements. Six samples were withdrawn in 20 min intervals. Each time 300 μl was taken from the 1500 μL basolateral acceptor compartment and 100 μL from the 500 μL apical acceptor compartment. These volumes were immediately replaced by the appropriate fresh incubation saline. The concentrations of (±)-N-((1-benzylpiperidin-3-yl)methyl)-N-(2-methoxyethyl)naphthalene-2-sulfonamide in the samples were determined by HPLC-UV immediately after the experiment.
# Caco-2 cell monolayers = experiment: in vitro
# Procedure: as §1, §2
# [1] = tested on: cryopreserved human hepatocytes; experiment: Metabolite identification in cryopreserved hepatocytes; format: in vitro ADME; conditions: 120 min, HPLC-MS
# Procedure: Principal Phase I (oxidative) and Phase II (conjugative) metabolites have been detected and characterized following previously described procedure (Obach R. S. et al. J. Pharmacol. Exp. Ther. 1997, 283, 46-58). Briefly, the test compound 2 ([…]) was incubated at 37° C. in cryopreserved human hepatocytes (0.7 million cells/mL) for 120 min. Samples were taken at time 0 and the end of the incubation (2 h), respectively. A control sample (no test compound added) was also prepared and incubated for the same period of time. After the reaction was stopped by addition of acetonitrile, the supernatants were subjected to HPLC-MS analysis. Separation of analytes was achieved using Acquity HSS T3 column (100×2.1 mm, 1.8 μm, Waters). The sample solutions-supernatants (5 μL) were injected and eluted at a flow rate of 0.5 mL min-1, using a linear gradient of mobile phase A (0.1% formic acid in water) and mobile phase B (0.1% formic acid in MeCN). The gradient for mobile phase B was: 0-1.0 min, 5%; 1.0-7.0 min, 5%-80%; 7.0-7.5 min, 80%; 7.5-8.0 min, 80%-5%; 8.0-10.0 min, 5%. […] Retention times and the respective MS and MS/MS spectra of the species detected in the incubated sample and not in time-zero or blank sample were identified and recorded.
smiles,measurement,setting,value
COCCN(CC1CCCN(Cc2ccccc2)C1)S(=O)(=O)c1ccc2ccccc2c1 (racemic) [(±)-N-((1-benzylpiperidin-3-yl)methyl)-N-(2-methoxyethyl)naphthalene-2-sulfonamide],LD50,HepG2 cells,58.67 µM
same,"Papp A→B at 120 min, 100 μM",in vitro,30 ± 10.7 ×10⁻⁶ cm/s
same,"Papp B→A at 120 min, 100 μM",in vitro,29.1 ± 2.9 ×10⁻⁶ cm/s
same,Permeability class according to the biopharmaceutical classification system,Caco-2 cell monolayers,high
same,Possible metabolites,[1],"N-debenzylated, demethylated, and a demethylated+glucoronide products"
